Source: ChEMBL document CHEMBL3885861, “Open TG-GATES”

Species: Rattus norvegicus
Test: Open TG-GATES - Regimen: Daily Repeat
Assay type: toxicity, organism-based, Sprague-Dawley
Design: regimen Daily Repeat, gender Male, age 6 weeks
Details: in vivo, po, route gavage; for gamma-GTP / ALP / ALT / AST / BUN / CRE / DBIL / GLC / IP / K / LDH / Na / PL / RALB / TBIL / TC / TG / TP: tissue Plasma; for APTT / Bas / Eos / Fbg / Ht / Lym / MCH / MCHC / MCV / Mono / Neu / Plat / RBC / Ret / WBC: tissue Blood
[1] = 45 mg/kg, 72 h, dose level Low, time 3 day
[2] = 45 mg/kg, […], dose level Low, time 7 day
[3] = 45 mg/kg, […], dose level Low, time 14 day
[4] = 45 mg/kg, […], dose level Low, time 28 day

For `CCCC(CCC)C(=O)O` [VALPROIC ACID], the gamma-GTP (0 mg/kg, […], dose level Control, time 28 day) was 1 IU/L, the TERMINAL_BW [1] was 226.4 g and the APTT [1] was 18.3 s. For the same compound, the Bas [1] was 0%, the Eos [1] was 1% and the Fbg [1] was 221.6 mg/dL. The Ht [1] was 38.6%, the Lym [1] was 78% and the MCH [1] was 21.7 pg. The MCHC [1] was 34.2%, the MCV [1] was 63.3 fL and the Mono [1] was 3.4%. The Neu [1] was 17%, the Plat [1] was 137.5 x10_4/uL and the RBC [1] was 609.4 x10_4/ul. The Ret [1] was 7.3%, the WBC [1] was 105.8 x10_2/uL and the ALP [1] was 892.6 IU/L. The ALT [1] was 36 IU/L, the AST [1] was 69 IU/L and the BUN [1] was 15.4 mg/dL. For the same compound, the CRE [1] was 0.4 mg/dL, the DBIL [1] was 0.076 mg/dL and the GLC [1] was 210.4 mg/dL. For the same compound, the IP [1] was 8.7 mg/dL, the K [1] was 4 meq/L and the LDH [1] was 217.4 IU/L. It also gave a Na [1] of 140.8 meq/L, a PL [1] of 160.4 mg/dL and an RALB [1] of 3.4 g/dL. It also gave a TBIL [1] of 0.1 mg/dL, a TC [1] of 78.4 mg/dL and a TG [1] of 84.2 mg/dL. For the same compound, the TP [1] was 5.5 g/dL, the gamma-GTP [1] was 1.4 IU/L and the TERMINAL_BW [2] was 255.3 g. The TERMINAL_BW [3] was 314.8 g, the TERMINAL_BW [4] was 407 g and the APTT [2] was 19 s. The Bas [2] was 0%, the Eos [2] was 1% and the Fbg [2] was 211.6 mg/dL. For the same compound, the Ht [2] was 40.1%, the Lym [2] was 82.6% and the MCH [2] was 21.3 pg. It also gave an MCHC [2] of 34.4%, an MCV [2] of 62 fL and a Mono [2] of 3%. The Neu [2] was 12.8%, the Plat [2] was 133.3 x10_4/uL and the RBC [2] was 647.4 x10_4/ul. For the same compound, the Ret [2] was 5.7%, the WBC [2] was 143.8 x10_2/uL and the APTT [3] was 18.3 s. For the same compound, the Bas [3] was 0%, the Eos [3] was 1% and the Fbg [3] was 229.2 mg/dL. The Ht [3] was 41.1%, the Lym [3] was 83.8% and the MCH [3] was 20.7 pg. For the same compound, the MCHC [3] was 35%, the MCV [3] was 59.1 fL and the Mono [3] was 2.6%. It also gave a Neu [3] of 12.2%, a Plat [3] of 130 x10_4/uL and an RBC [3] of 695.4 x10_4/ul. For the same compound, the Ret [3] was 4.7%, the WBC [3] was 113.4 x10_2/uL and the APTT [4] was 19.9 s. The Bas [4] was 0%, the Eos [4] was 1.4% and the Fbg [4] was 214.2 mg/dL. For the same compound, the Ht [4] was 42.1%, the Lym [4] was 82.8% and the MCH [4] was 19.6 pg. It also gave an MCHC [4] of 35.1%, an MCV [4] of 55.8 fL and a Mono [4] of 2%. The Neu [4] was 13.2%, the Plat [4] was 112.1 x10_4/uL and the RBC [4] was 755.6 x10_4/ul. For the same compound, the Ret [4] was 2.7%, the WBC [4] was 101.3 x10_2/uL and the ALP [2] was 833.2 IU/L. For the same compound, the ALT [2] was 35.2 IU/L, the AST [2] was 65.6 IU/L and the BUN [2] was 16.2 mg/dL. The CRE [2] was 0.4 mg/dL, the DBIL [2] was 0.084 mg/dL and the GLC [2] was 219.6 mg/dL. It also gave an IP [2] of 8.2 mg/dL, a K [2] of 3.7 meq/L and an LDH [2] of 193.8 IU/L. The Na [2] was 140.2 meq/L, the PL [2] was 143.4 mg/dL and the RALB [2] was 3.4 g/dL. The TBIL [2] was 0.1 mg/dL, the TC [2] was 73.2 mg/dL and the TG [2] was 86.4 mg/dL. The TP [2] was 5.6 g/dL, the gamma-GTP [2] was 1.6 IU/L and the ALP [3] was 914.4 IU/L. The ALT [3] was 34.8 IU/L, the AST [3] was 65.8 IU/L and the BUN [3] was 17.2 mg/dL. For the same compound, the CRE [3] was 0.4 mg/dL, the DBIL [3] was 0.086 mg/dL and the GLC [3] was 234 mg/dL. The IP [3] was 7.5 mg/dL, the K [3] was 4 meq/L and the LDH [3] was 192 IU/L. For the same compound, the Na [3] was 141.2 meq/L, the PL [3] was 151.2 mg/dL and the RALB [3] was 3.3 g/dL. The TBIL [3] was 0.1 mg/dL, the TC [3] was 74.4 mg/dL and the TG [3] was 106 mg/dL. For the same compound, the TP [3] was 5.8 g/dL, the gamma-GTP [3] was 0.8 IU/L and the ALP [4] was 660.2 IU/L. For the same compound, the ALT [4] was 37.4 IU/L, the AST [4] was 65 IU/L and the BUN [4] was 19 mg/dL. The CRE [4] was 0.4 mg/dL, the DBIL [4] was 0.1 mg/dL and the GLC [4] was 200 mg/dL. The IP [4] was 6.8 mg/dL, the K [4] was 3.8 meq/L and the LDH [4] was 168.2 IU/L. For the same compound, the Na [4] was 141.4 meq/L, the PL [4] was 147.2 mg/dL and the RALB [4] was 3.4 g/dL. It also gave a TBIL [4] of 0.2 mg/dL, a TC [4] of 63.8 mg/dL and a TG [4] of 158.4 mg/dL.
